Data: US20250049812A1, “Compounds that Inhibit Necroptosis and Their Preparation Methods” (SHANGHAI INSTITUTE OF ORGANIC CHEMISTRY, CHINESE ACADEMY OF …, priority 2021, published 2025)
pIC50: −log10 of the molar value.

system: Jurkat FADD (−/−) Cells; assay: TNF-α induced necroptosis of Jurkat FADD-deficient cells (CellTiter-Glo cell survival); type: cell-based, human; conditions: Homo sapiens; TNF-α induced necroptosis, Jurkat FADD-deficient cells, 13 hours, CellTiter-Glo; read-out: IC50
In short: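 Cells in RPMI 1640 with 10% FBS were pretreated for 1 h at 37 °C with compound (12-point threefold series from 25 μM, or 0.5 μM, in triplicate). They were then stimulated with TNFα added as a 5 ng/mL solution for 13 h. Survival was read by luminescence.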

Compound	pIC50
Cc1ccsc1-c1cn2c3c(cccc13)N(C)C(=O)C(NC(=O)c1nnc(Cc3ccccc3)[nH]1)C2 (racemic) [T-91, (±)-5-benzyl-N-(1-methyl-7-(3-methylthiophen-2-yl)-2-oxo-1,2,3,4-tetrahydro-[1,4]diazepine [3,2,1-hi]indol-3-yl)-4H-1,2,4-triazole-3-carboxamide]	7.00 to 8.00
CC(C)n1nccc1-c1cn2c3c(cccc13)N(C)C(=O)C(NC(=O)c1nnc(Cc3ccccc3)[nH]1)C2 (racemic) [T-90, (±)-5-benzyl-N-(7-(1-isopropyl-1H-pyrazol-5-yl)-1-methyl-2-oxo-1,2,3,4-tetrahydro-1,4-diazepine [3,2,1-hi]indol-3-yl)-4H-1,2,4-triazole-3-carboxamide]	> 8.00
CN1C(=O)C(NC(=O)c2nnc(Cc3ccccc3)[nH]2)Cc2cn(-c3ncccc3C(N)=O)c3cccc1c23 (racemic) [T-61, (±)-2-(3-(5-benzyl-4H-1,2,4-triazole-3-carboxamide)-1-methyl-2-oxy-1,2,3,4-tetrahydro-6H-azacyclo [4,3,2-cd]indol-6-yl)nicotinamide]	7.00 to 8.00
Cc1cccnc1-n1cc2c3c(cccc31)N(C)C(=O)C(NC(=O)c1nnc(Cc3ccccc3)[nH]1)C2 (racemic) [T-44, (±)-5-benzyl-N-(1-methyl-6-(3-methylpyridin-2-yl)-2-oxo-2,3,4,6-tetrahydro-1H-azacyclo [4,3,2-cd]indol-3-yl)-4H-1,2,4-triazole-3-carboxamide]	> 8.00
CN1C(=O)[C@@H](NC(=O)c2nnc(Cc3ccccc3)[nH]2)Cn2cc(-c3cn(C)nc3-c3ccccc3)c3cccc1c32 [T-122, (S)-5-benzyl-N-(1-methyl-7-(1-methyl-3-phenyl-1H-pyrazol-4-yl)-2-oxo-1,2,3,4-tetrahydro-[1,4]diazepine [3,2,1-hi]indol-3-yl)-4H-1,2,4-triazole-3-carboxamide]	7.00 to 8.00
CN1C(=O)C(NC(=O)c2nnc(Cc3ccccc3)[nH]2)Cn2cc(-c3ncccc3C(F)(F)F)c3cccc1c32 (stereo not drawn) [T-82, 5-benzyl-N-(1-methyl-2-oxo-7-(3-(trifluoromethyl)pyridin-2-yl)-1,2,3,4-tetrahydro-[1,4]diazepino[3,2,1-hi]indol-3-yl)-4H-1,2,4-triazole-3-carboxamide]	> 8.00
CC(O)c1cccnc1-n1cc2c3c(cccc31)N(C)C(=O)C(NC(=O)c1nnc(Cc3ccccc3)[nH]1)C2 (racemic) [T-58, (±)-5-benzyl-N-(6-(3-(1-hydroxyethyl)pyridin-2-yl)-1-methyl-2-oxo-2,3,4,6-tetrahydro-1H-azacyclo [4,3,2-cd]indol-3-yl)-4H-1,2,4-triazole-3-carboxamide]	7.00 to 8.00
COC(=O)c1ncncc1-n1cc2c3c(cccc31)N(C)C(=O)C(NC(=O)c1nnc(Cc3ccccc3)[nH]1)C2 (racemic) [T-51, (±)-5-(3-(5-benzyl-4H-1,2,4-triazole-3-carboxamide)-1-methyl-2-oxo-1,2,3,4-tetrahydro-6H-azacyclo [4,3,2-cd]indol-6-yl)pyrimidine-4-carboxylic Acid Methyl Ester]	7.00 to 8.00
CN1C(=O)C(N2CCc3c(nn(Cc4ccccc4)c3Cl)C2=O)Cc2c[nH]c3cccc1c23 (racemic) [T-32, (±)-3-(2-benzyl-3-chloro-7-oxo-2,4,5,7-tetrahydro-6H-pyrazole [3,4-c]pyridin-6-yl)-1-methyl-1,3,4,6-tetrahydro-2H-azacyclo [4,3,2-cd] indole-2-one]	> 8.00
CN1C(=O)[C@@H](NC(=O)c2nnc(Cc3ccccc3)[nH]2)Cc2n[nH]c3cccc1c23 [T-72, (S)-5-benzyl-N-(6-methyl-7-oxo-6,7,8,9-tetrahydro-2H-azacyclo [4,3,2-cd]indazol-8-yl)-4H-1,2,4-triazole-3-carboxamide]	6.00 to 7.00
CN1C(=O)C(NC(=O)c2nnc(Cc3ccccc3)[nH]2)Cc2cn(Cc3cnn(C)c3)c3cccc1c23 (racemic) [T-35, (±)-5-benzyl-N-(1-methyl-6-((1-methyl-1H-pyrazol-4-yl)methyl)-2-oxo-2,3,4,6-tetrahydro-1H-azacyclo [4,3,2-cd]indol-3-yl)-4H-1,2,4-triazole-3-carboxamide]	> 8.00
Cc1noc(C)c1-c1cn2c3c(cccc13)N(C)C(=O)C(NC(=O)c1nnc(Cc3ccccc3)[nH]1)C2 (stereo not drawn) [T-86, 5-benzyl-N-(7-(3,5-dimethylisoxazol-4-yl)-1-methyl-2-oxo-1,2,3,4-tetrahydro-[1,4]diazepine[3,2,1-hi]indol-3-yl)-4H-1,2,4-triazole-3-carboxamide]	> 8.00
CN1C(=O)C(NC(=O)c2nnc(Cc3ccccc3)[nH]2)Cc2cn(-c3cccnn3)c3cccc1c23 (racemic) [T-106, (±)-5-benzyl-N-(1-methyl-2-oxo-6-(pyridazin-3-yl)-2,3,4,6-tetrahydro-1H-aza [4,3,2-cd]indol-3-yl)-4H-1,2,4-triazole-3-carboxamide]	6.00 to 7.00
CN1C(=O)C(NC(=O)c2nnc(Cc3ccccc3)[nH]2)Cc2cn(-c3ccn(C)n3)c3cccc1c23 (racemic) [T-37, (±)-5-benzyl-N-(1-methyl-6-(1-methyl-1H-pyrazol-3-yl)-2-oxo-2,3,4,6-tetrahydro-1H-azacyclo [4,3,2-cd]indol-3-yl)-4H-1,2,4-triazole-3-carboxamide]	> 8.00
CN1C(=O)C(NC(=O)c2nnc(Cc3ccccc3)[nH]2)Cc2cn(CC(N)=O)c3cccc1c23 (racemic) [T-31, (±)-N-(6-(2-amino-2-oxoethyl)-1-methyl-2-oxo-2,3,4,6-tetrahydro-1H-azacyclo [4,3,2-cd]indol-3-yl)-5-benzyl-4H-1,2,4-triazole-3-carboxamide]	6.00 to 7.00
COc1ncccc1-c1cn2c3c(cccc13)N(C)C(=O)C(NC(=O)c1nnc(Cc3ccccc3)[nH]1)C2 (stereo not drawn) [T-78, 5-benzyl-N-(7-(2-methoxypyridin-3-yl)-1-methyl-2-oxo-1,2,3,4-tetrahydro-[1,4]diazepino[3,2,1-hi]indol-3-yl)-4H-1,2,4-triazole-3-carboxamide]	> 8.00
CN1C(=O)C(NC(=O)c2nnc(Cc3ccccc3)[nH]2)Cc2cn(-c3ncccc3C(C)(C)O)c3cccc1c23 (racemic) [T-55, (±)-5-benzyl-N-(6-(3-(2-hydroxypropan-2-yl)pyridin-2-yl)-1-methyl-2-oxy-2,3,4,6-tetrahydro-1H-azacyclo [4,3,2-cd]indol-3-yl)-4H-1,2,4-triazole-3-carboxamide]	7.00 to 8.00
Cc1cnn(C)c1-c1cn2c3c(cccc13)N(C)C(=O)C(NC(=O)c1nnc(Cc3ccccc3)[nH]1)C2 (stereo not drawn) [T-81, 5-benzyl-N-(7-(1,4-dimethyl-1H-pyrazol-5-yl)-1-methyl-2-oxo-1,2,3,4-tetrahydro-[1,4]diazepino[3,2,1-hi]indol-3-yl)-4H-1,2,4-triazole-3-carboxamide]	> 8.00
CN1C(=O)C(NC(=O)c2nnc(Cc3ccccc3)[nH]2)Cc2cn(-c3ccncc3)c3cccc1c23 (racemic) [T-102, (±)-5-benzyl-N-(1-methyl-2-oxo-6-(pyridin-4-yl)-2,3,4,6-tetrahydro-1H-azacyclo [4,3,2-cd]indol-3-yl)-4H-1,2,4-triazole-3-carboxamide]	7.00 to 8.00
COc1cccnc1-n1cc2c3c(cccc31)N(C)C(=O)C(NC(=O)c1nnc(Cc3ccccc3)[nH]1)C2 (racemic) [T-41, (±)-5-benzyl-N-(6-(3-methoxypyridin-2-yl)-1-methyl-2-oxo-2,3,4,6-tetrahydro-1H-azacyclo [4,3,2-cd]indol-3-yl)-4H-1,2,4-triazole-3-carboxamide]	> 8.00
CN1C(=O)C(NC(=O)c2nnc(Cc3ccccc3)[nH]2)Cn2cc(C#Cc3cnn(C)c3)c3cccc1c32 (racemic) [T-8, (±)-5-benzyl-N-(1-methyl-7-((1-methyl-1H-pyrazol-4-yl)ethynyl)-2-oxy-1,2,3,4-tetrahydro-[1,4]diazepino [3,2,1-hi]indol-3-yl)-4H-1,2,4-triazole-3-carboxamide]	> 8.00
CN1C(=O)C(NC(=O)c2nnc(Cc3ccccc3)[nH]2)Cn2ccc3cc(F)cc1c32 (racemic) [T-7, (±)-5-benzyl-N-(9-fluoro-1-methyl-2-oxo-1,2,3,4-tetrahydro-[1,4]diazepino [3,2,1-hi]indol-3-yl)-4H-1,2,4-triazole-3-carboxamide]	7.00 to 8.00
CN1C(=O)[C@@H](NC(=O)c2nnc(Cc3ccccc3)[nH]2)Cn2cc(-c3cnn(C4CCOCC4)c3)c3cccc1c32 [T-120, (S)-5-benzyl-N-(1-methyl-2-oxo-7-(1-(tetrahydro-2H-pyran-4-yl)-1H-pyrazol-4-yl)-1,2,3,4-tetrahydro-1,4-diazepine[3,2,1-hi]indol-3-yl)-4H-1,2,4-triazole-3-carboxamide]	> 8.00
CN1C(=O)C(NC(=O)c2nnc(Cc3ccccc3)[nH]2)Cn2ccc3cc(C#Cc4cnn(C)c4)cc1c32 (racemic) [T-9, (±)-5-benzyl-N-(1-methyl-9-((1-methyl-1H-pyrazol-4-yl)ethynyl)-2-oxy-1,2,3,4-tetrahydro-[1,4]diazepino [3,2,1-hi]indol-3-yl)-4H-1,2,4-triazole-3-carboxamide]	> 8.00
CC(C#N)Cn1cc2c3c(cccc31)N(C)C(=O)C(NC(=O)c1nnc(Cc3ccccc3)[nH]1)C2 (racemic) [T-27, (±)-5-benzyl-N-(6-(2-cyanopropyl)-1-methyl-2-oxo-2,3,4,6-tetrahydro-1H-azacyclo [4,3,2-cd]indol-3-yl)-4H-1,2,4-triazole-3-carboxamide]	7.00 to 8.00
CN1C(=O)C(NC(=O)c2nnc(Cc3ccccc3)[nH]2)Cn2c(C(=O)O)cc3cccc1c32 (racemic) [T-13, (±)-3-(5-benzyl-4H-1,2,4-triazole-3-carboxamido)-1-methyl-2-oxy-1,2,3,4-tetrahydro-[1,4] diazepino [3,2,1-hi] indole-6-carboxylic Acid]	< 6.00

same assay, conditions: TNF-α induced necroptosis, Jurkat FADD-deficient cells, 13 hours, CellTiter-Glo; read-out: IC50

Compound	pIC50
(±)-5-(3-(5-benzyl-4H-1,2,4-triazole-3-carboxamido)-1-methyl-2-oxo-1,2,3,4-tetrahydro-6H-azacyclo [4,3,2-cd] indol-6-yl)oxazole-4-carboxylate [T-98]	> 8.00
